Measurements published in patent US8846746B2, “Pyrazole compound and pharmaceutical use thereof” (Japan Tobacco Inc., priority 2011, dated 2014).
pIC50: −log10 of the molar value.

target: human SGLT1 (Homo sapiens (Human), UniProt P13866); assay: SGLT1 inhibitory activity: 14C-AMG uptake into CHO-K1 cell line stably expressing human SGLT1; type: cell-based; conditions: 14C-AMG uptake, CHO-K1 cells expressing human SGLT1
In short: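 CHO-K1 cells stably expressing human SGLT1 were pre-incubated 20 min in Na(−) buffer (pH 7.4). Test compound in Na(+) buffer with BSA was added with ¹⁴C-AMG (8 kBq) plus unlabelled AMG (2 mM in the added solution) for 1 h at 37 °C.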

Chain of human SGLT1 (P13866 whole entry): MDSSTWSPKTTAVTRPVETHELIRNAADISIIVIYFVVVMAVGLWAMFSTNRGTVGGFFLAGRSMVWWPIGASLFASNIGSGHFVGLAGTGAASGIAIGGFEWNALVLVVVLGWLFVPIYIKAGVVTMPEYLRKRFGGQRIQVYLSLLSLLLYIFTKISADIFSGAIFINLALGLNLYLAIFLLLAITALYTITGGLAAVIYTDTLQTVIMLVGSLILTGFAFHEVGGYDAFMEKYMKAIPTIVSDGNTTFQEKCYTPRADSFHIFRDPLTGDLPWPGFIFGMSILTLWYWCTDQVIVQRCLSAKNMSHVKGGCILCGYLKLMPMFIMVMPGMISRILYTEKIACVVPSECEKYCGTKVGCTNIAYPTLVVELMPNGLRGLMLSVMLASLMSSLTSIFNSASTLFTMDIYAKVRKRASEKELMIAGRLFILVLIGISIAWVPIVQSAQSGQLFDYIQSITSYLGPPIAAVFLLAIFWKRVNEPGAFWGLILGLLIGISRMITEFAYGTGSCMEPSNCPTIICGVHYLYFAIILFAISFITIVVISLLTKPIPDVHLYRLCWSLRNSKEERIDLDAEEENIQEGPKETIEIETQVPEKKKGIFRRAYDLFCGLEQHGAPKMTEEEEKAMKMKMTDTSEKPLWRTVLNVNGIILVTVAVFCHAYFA

| pIC50 | SMILES |
| --- | --- |
| 8.23 | C[C@H]1C(=O)NC[C@@H]1C(=O)Nc1cc(-c2cccc(OCC(F)(F)F)c2)n(-c2ccccc2)n1 [Example 210] |
| 6.72 | CCCc1cccc(-c2cc(NC(=O)C3CNC(=O)C3)nn2C(C)(C)C)c1 (racemic) [Example 42] |
| 8.48 | Cc1ccccc1-n1nc(NC(=O)[C@H]2CNC(=O)C2)cc1-c1cccc(OCC(F)(F)F)c1 [Example 226] |
| 7.55 | CC(C)(C)c1cccc(-c2cc(NC(=O)[C@H]3CNC(=O)C3)nn2CCC2CCCCC2)c1 [Example 129] |
| 6.17 | CCCc1cccc(-c2cc(NC(=O)C3(C)CNC(=O)C3)nn2-c2ccccc2)c1 (racemic) [Example 21] |
| 8.32 | O=C1C[C@@H](C(=O)Nc2cc(-c3cccc(OCC(F)(F)F)c3)n(-c3cccc(F)c3)n2)CN1 [Example 206] |
| 7.55 | CCCc1cccc(-c2cc(NC(=O)[C@H]3CNC(=O)C3)nn2C2CCOCC2)c1 [Example 136] |
| 7.47 | CCc1cccc(-c2cc(NC(=O)[C@@H]3CNC(=O)C3)nn2-c2ccccc2)c1 [Example 44] |
| 8.13 | CCCc1cccc(-c2cc(NC(=O)[C@@H]3CNC(=O)C3)nn2-c2ccccc2)c1 [Example 23] |
| 8.26 | CCC(F)(F)c1cccc(-c2cc(NC(=O)[C@H]3CNC(=O)[C@@H]3C)nn2-c2ccc(F)cc2)c1 [Example 172] |
| 8.62 | CCCc1cccc(-c2cc(NC(=O)[C@H]3CNC(=O)C3)nn2-c2cccc(Cl)c2)c1 [Example 95] |
| 8.11 | CC1(C)CCC=C(c2cc(NC(=O)[C@H]3CNC(=O)C3)nn2-c2ccccc2)C1 [Example 78] |
| 7.77 | O=C1C[C@@H](C(=O)Nc2cc(-c3cccc(OC(F)(F)F)c3)n(CCC3CCCCC3)n2)CN1 [Example 128] |
| 8.00 | CCCc1cccc(-c2cc(NC(=O)[C@@H]3CNC(=O)N3)nn2-c2ccccc2)c1 [Example 97] |
| 8.07 | O=C1C[C@@H](C(=O)Nc2cc(-c3cccc(C(F)(F)F)c3)n(-c3ccccc3F)n2)CN1 [Example 228] |
| 7.26 | CCC(F)(F)c1cccc(-c2cc(NC(=O)[C@H]3CNC(=O)[C@@H]3C)nn2CCOC(C)C)c1 [Example 176] |
| 8.21 | Cc1ccc(-n2nc(NC(=O)[C@H]3CNC(=O)[C@@H]3C)cc2-c2cccc(OCC(F)(F)F)c2)cc1 [Example 217] |

same assay, conditions: 14C-AMG uptake, CHO-K1 cells stably expressing human SGLT1

| pIC50 | SMILES |
| --- | --- |
| 8.42 | CCCc1cccc(-c2cc(NC(=O)[C@@H]3CNC(=O)C3)nn2-c2ccccc2C)c1 [Example 261] |
| 7.61 | CC(C)(C)CCOc1cccc(-c2cc(NC(=O)[C@@H]3CNC(=O)C3)nn2-c2ccccc2)c1 [Example 294] |
| 7.92 | CCCc1cccc(-c2cc(NC(=O)[C@@H]3CNC(=O)C3)nn2-c2cccc(OC3CCCC3)c2)c1 [Example 382] |
| 7.57 | CC(C)(OCc1cccc(-c2cc(NC(=O)[C@H]3CNC(=O)N3)nn2-c2ccc(Cl)cc2)c1)C(F)(F)F [Example 599] |
| 8.68 | CCOc1ccc(F)c(-n2nc(NC(=O)[C@@H]3CNC(=O)C3)cc2-c2cccc(COCC(F)(F)F)c2)c1 [Example 460] |
| 7.89 | O=C1C[C@H](C(=O)Nc2cc(-c3cc(F)cc(COCC(F)(F)F)c3)n(-c3ccccc3F)n2)CN1 [Example 519] |
| 7.66 | CCCOCc1cccc(-c2cc(NC(=O)[C@H]3CNC(=O)C3)nn2-c2ccccc2)c1 [Example 312] |
| 7.77 | O=C1C[C@H](C(=O)Nc2cc(-c3cccc(COCC(F)(F)F)c3)n(-c3cccc(F)c3)n2)CN1 [Example 468] |
| 8.48 | COc1cccc(-n2nc(NC(=O)[C@@H]3CNC(=O)C3)cc2-c2cccc(CO[C@H](C)C(F)(F)F)c2)c1 [Example 451] |
| 8.64 | CC(C)Oc1cccc(-n2nc(NC(=O)[C@@H]3CNC(=O)C3)cc2-c2cccc(COCC(F)(F)F)c2)c1 [Example 449] |
| 8.11 | CCCc1cccc(-c2cc(NC(=O)[C@@H]3CNC(=O)C3)nn2-c2cccc(OCCOC)c2)c1 [Example 406] |
| 8.33 | C[C@@H](OCc1cccc(-c2cc(NC(=O)[C@@H]3CNC(=O)C3)nn2-c2cccc(Cl)c2)c1)C(F)(F)F [Example 506] |
| 7.60 | CC[C@@H](C)OCc1cccc(-c2cc(NC(=O)[C@@H]3CNC(=O)C3)nn2-c2ccccc2)c1 [Example 350] |
| 7.51 | CCCO[C@@H](C)c1cccc(-c2cc(NC(=O)[C@@H]3CNC(=O)C3)nn2-c2ccccc2)c1 [Example 396] |
| 7.80 | C[C@H](OCc1cccc(-c2cc(NC(=O)[C@@H]3CNC(=O)C3)nn2-c2ccccc2)c1)C(F)(F)F [Example 335] |
| 7.72 | CCCCc1cccc(-c2cc(NC(=O)[C@H]3CNC(=O)N3)nn2-c2ccccc2)c1 [Example 245, (R)-2-Oxoimidazolidine-4-carboxylic acid[5-(3-butylphenyl)-1-phenyl-1H-pyrazol-3-yl]amide] |
| 7.32 | CC(C)(C)CS(=O)(=O)c1cccc(-c2cc(NC(=O)[C@@H]3CNC(=O)C3)nn2-c2ccccc2)c1 [Example 540] |
| 7.80 | CC(OCc1cccc(-c2cc(NC(=O)[C@@H]3CNC(=O)C3)nn2-c2ccccc2)c1)(C(F)(F)F)C(F)(F)F [Example 353] |
| 7.89 | CCCc1cccc(-c2cc(NC(=O)[C@@H]3CNC(=O)C3)nn2-c2ccc(C(C)C)cc2)c1 [Example 363] |
| 7.89 | O=C1C[C@H](C(=O)Nc2cc(-c3cc(F)cc(COC(C(F)(F)F)C(F)(F)F)c3)n(-c3ccc(F)cc3)n2)CN1 [Example 573] |
| 7.96 | COCc1cccc(-n2nc(NC(=O)[C@@H]3CNC(=O)C3)cc2-c2cccc(COCC(F)(F)F)c2)c1 [Example 489] |
| 7.96 | CCOc1cccc(-n2nc(NC(=O)[C@@H]3CNC(=O)C3)cc2-c2cccc(OC(F)(F)F)c2)c1 [Example 443] |
| 7.89 | CCCCc1cccc(-c2cc(NC(=O)[C@H]3CNC(=O)O3)nn2-c2ccccc2)c1 [Example 306] |
| 7.96 | CCCc1cccc(-c2cc(NC(=O)[C@@H]3CNC(=O)C3)nn2-c2cccc(OC3CCC3)c2)c1 [Example 412] |
| 8.04 | CC(C)Oc1cc(F)cc(-n2nc(NC(=O)[C@@H]3CNC(=O)C3)cc2-c2cccc(OC(F)(F)F)c2)c1 [Example 526] |
| 7.66 | CCC(CC)OCc1cccc(-c2cc(NC(=O)[C@@H]3CNC(=O)C3)nn2-c2ccccc2)c1 [Example 332] |
| 7.76 | O=C1C[C@H](C(=O)Nc2cc(-c3cccc(COCC(F)(F)F)c3)n(-c3ccccc3)n2)CN1 [Example 279] |
| 7.82 | CC(C)COCc1cccc(-c2cc(NC(=O)[C@@H]3CNC(=O)C3)nn2-c2ccccc2)c1 [Example 314] |

same assay, conditions: CHO-K1, at 0.1 uM

| inhibition at 0.1 µM | SMILES |
| --- | --- |
| 26% | C[C@@H]1C[C@@H](n2nc(NC(=O)[C@H]3CNC(=O)C3)cc2-c2cccc(OC(F)(F)F)c2)C[C@H](C)O1 [Example 218] |
| 20% | C[C@@H]1C[C@H](n2nc(NC(=O)[C@H]3CNC(=O)C3)cc2-c2cccc(OC(F)(F)F)c2)C[C@H](C)O1 [Example 219] |
| 23% | C[C@@H](OCc1cccc(-c2cc(NC(=O)[C@H]3CCC(=O)N3)nn2-c2ccccc2)c1)C(F)(F)F [Example 556] |
| 4% | CCC(F)(F)c1cccc(-c2cc(NC(=O)[C@H]3CNC(=O)C3)nn2CCN2CCCC2)c1 [Example 169] |
| 30% | O=C1COC(C(=O)Nc2cc(-c3cccc(OC(F)(F)F)c3)n(-c3ccccc3)n2)CN1 (stereo not drawn) [Example 276] |

same assay, conditions: CHO-K1, at 0.3 uM

| inhibition at 0.3 µM | SMILES |
| --- | --- |
| 49% | CC1C(=O)NC(O)C1C(=O)Nc1cc(-c2cccc(OC(F)(F)F)c2)n(-c2ccccc2)n1 (racemic) [Example 254] |
